Publication PMC4467156, “A new chemical inhibitor of angiogenesis and tumorigenesis that targets the VEGF signaling pathway upstream of Ras” (Oncotarget, 2015)

Tests used:
ERK1/2 phosphorylation = test: Western blot, ERK1/2 phosphorylation in HUVEC; format: cell-based, human
Protocol: Figure 9 Effect of COB223 on growth factor-induced VEGF-R2, MEK and ERK phosphorylations (A) Serum-starved HUVEC cells were incubated for 15 min in the presence of either 10 ng/mL VEGF-A or 20 ng/mL FGF-2 and in the absence or the presence of 25 μM COB223. The phosphorylations of VEGFR2 on tyrosine 1175 or tyrosine 1214, of MEK and ERK1/2 were then analyzed by Western blot analysis of the cell lysates as described in Material and Methods. Western blots for total VEGFR2, MEK and ERK1/2 were used as loading controls. The blots shown in Figure 9A were obtained in one representative experiment. (B) The hybridization signals observed in 5 similar but independent experiments were quantitated and the ratios between phospho-VEGFR2(Y1175) or (Y1214) and VEGFR2 signals were normalized to the value observed in the absence of COB223. (C) The hybridization signals observed in 5 similar but independent experiments were quantitated and the ratios between phospho-ERK1/2 and ERK1/2 and between phospho-MEK and MEK were normalized to the values observed in the absence of COB223. Additional experiments performed with 10% fetal calf serum (FCS) as a mitogen were included in this analysis. * : p < 0.05; ** : p < 0.01
Figure 10 Effect of PKC inhibitors on PMA-, VEGF- and FGF2-induced ERK phoshorylation (A) Serum-starved HUVEC cells were incubated for 15 min in the presence of 10 ng/mL VEGF-A or 20 ng/mL FGF-2 and in the absence or the presence of 25 μM COB223 or 5 μM Gö6983 and 5 μM Gö6976. The phosphorylation ERK1/2 was then analyzed by Western blot analysis of the cell lysates as described in Material and Methods. Western blots for total ERK1/2 were used as loading controls. (B) Serum-starved HUVEC cells were incubated for 5 min in the presence of 200 nM of PMA and in the absence or the presence of 25 μM COB223 or 5 μM Gö6983 and 5 μM Gö6976. The hybridization signals observed were quantitated and the ratio between phospho-ERK1/2 and ERK1/2 was normalized to the values observed in the absence of COB223. Similar results were obtained in 2 independent experiments.
Serum-starved HUVEC cells were incubated for 15 min in the presence of either 10 ng/mL VEGF-A or 20 ng/mL FGF-2 and in the absence or the presence of indicated concentration of COB223. COB223 was incubated 15 min prior to stimulation. Cells were lysed in RIPA buffer ( Tris HCl pH 7.4 10 mM, NaCl 150 mM, SDS 0.1%, Na Deoxycholate 0.5%, EDTA 1 mM, Triton X100 1% and protease inhibitor cocktail (Sigma) for protein extraction. After fractionation of proteins on a 4–15% SDS-PAGE gel and blotting to a nitrocellulose membrane, immunoblotting detection of proteins was done using indicated antibodies according to manufacturer's instruction.

FGFR1 = FGFR1 (Homo sapiens, UniProt P11362); test: In vitro kinase assay FGFR1; format: biochemical; details: concentrations up to 50 μM
Protocol: (§1) We first wondered whether COB223 required to be internalized to exert its biological effect. For this, we synthesized a covalent complex between BSA and COB223 and purified it. […] In vitro kinase assays were performed with a panel of purified protein-kinases involved in mitogenic signaling, including VEGFR2, FGFR1, FGFR2, PDGFRß, Met, Raf, MEK1, ERK1, ERK2, PKCα, PKCβI, PKCβII, PKCζ as indicated in Table 2. […] We then analyzed the effect of COB223 on VEGF-induced phosphorylations of VEGFR2, MEK and ERK1/2 (Figure 9). […] (Figure 9A, 9B). […] It was also specific of the p42/p44 MAP kinase pathway as activation of p38 MAP kinase phosphorylation in HUVEC cells by VEGF or serum was unaffected by COB223 (data not shown). The activation of src phosphorylation by VEGF in HUVECs was also unaffected by COB223 (data not shown).

[1] = test system: neovascular response to FGF-2; test: Mouse sponge angiogenesis assay; format: in vivo; details: Balb/c mice, COB223 100 μM injected into sponge, day 7
Protocol: Disc Cellspon cellulose sponges (thickness 2 mm, diameter 10 mm, Cellomeda; Turku, Finland) were implanted under the skin of Balb-c mice under general anesthesia. Mice were divided in three groups receiving either DMSO, FGF-2, or FGF-2 and COB223 (groups of respectively 6, 7 and 8 mice). […] DMSO, FGF-2 and/or COB223 (50 μL) were injected again into the sponges through the skin on day 1 and 2. A third injection of COB223 alone was performed on day 4. On day 7, the vascularization of the sponges was imaged by non-invasive fluorescence imaging after i.p. injection of RAFT-(cRGD)4 (Angiostamp^TM, Fluoptics, Grenoble, France) as described in [9]. The mice were then anesthetized and sacrificed by cervical dislocation on day 7 and the sponges were rapidly excised and photographed. Each sponge was then homogenized in 1 mL RIPA lysis buffer and the supernatants were used for quantification. The extent of vascularization of the sponge implants was assessed by measuring the amount of hemoglobin using the Drabkin's reagent (Sigma).

PKC ζ = PKC ζ (Homo sapiens, UniProt Q05513); test: In vitro kinase assay PKC ζ; format: biochemical; details: concentrations up to 50 μM
Protocol: as §1

LLC/2 cells = test: 3H-thymidine incorporation, LLC/2; format: cell-based; details: LLC/2 lung carcinoma cells; less efficiently than on endothelial cells
Protocol: Cells were treated with molecules in complete medium. After 22 h, 1 μCi per well H^3 thymidine was added for 2 hours. Cells are then fixed by 10% trichloroacetic acid and harvested with 0.2N NaOH, 1% SDS. Radioactivity was measured in a beta counter.

Sequence of PKC ζ (Q05513 whole entry): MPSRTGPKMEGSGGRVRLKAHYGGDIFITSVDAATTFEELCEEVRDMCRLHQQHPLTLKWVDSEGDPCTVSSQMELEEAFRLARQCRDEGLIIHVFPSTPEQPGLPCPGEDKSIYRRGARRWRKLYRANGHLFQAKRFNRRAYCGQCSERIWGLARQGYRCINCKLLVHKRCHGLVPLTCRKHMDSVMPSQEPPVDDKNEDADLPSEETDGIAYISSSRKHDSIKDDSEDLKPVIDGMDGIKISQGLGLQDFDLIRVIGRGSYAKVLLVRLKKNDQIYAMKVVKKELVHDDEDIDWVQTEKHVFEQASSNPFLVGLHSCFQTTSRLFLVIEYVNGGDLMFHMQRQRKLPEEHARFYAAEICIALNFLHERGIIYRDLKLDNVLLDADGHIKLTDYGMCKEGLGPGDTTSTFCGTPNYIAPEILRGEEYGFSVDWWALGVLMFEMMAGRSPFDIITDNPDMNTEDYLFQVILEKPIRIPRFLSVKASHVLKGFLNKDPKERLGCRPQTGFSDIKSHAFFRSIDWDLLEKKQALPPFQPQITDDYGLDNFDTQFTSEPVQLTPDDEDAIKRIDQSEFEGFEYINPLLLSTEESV
Sequence of FGFR1 (P11362 22-822, species assumed): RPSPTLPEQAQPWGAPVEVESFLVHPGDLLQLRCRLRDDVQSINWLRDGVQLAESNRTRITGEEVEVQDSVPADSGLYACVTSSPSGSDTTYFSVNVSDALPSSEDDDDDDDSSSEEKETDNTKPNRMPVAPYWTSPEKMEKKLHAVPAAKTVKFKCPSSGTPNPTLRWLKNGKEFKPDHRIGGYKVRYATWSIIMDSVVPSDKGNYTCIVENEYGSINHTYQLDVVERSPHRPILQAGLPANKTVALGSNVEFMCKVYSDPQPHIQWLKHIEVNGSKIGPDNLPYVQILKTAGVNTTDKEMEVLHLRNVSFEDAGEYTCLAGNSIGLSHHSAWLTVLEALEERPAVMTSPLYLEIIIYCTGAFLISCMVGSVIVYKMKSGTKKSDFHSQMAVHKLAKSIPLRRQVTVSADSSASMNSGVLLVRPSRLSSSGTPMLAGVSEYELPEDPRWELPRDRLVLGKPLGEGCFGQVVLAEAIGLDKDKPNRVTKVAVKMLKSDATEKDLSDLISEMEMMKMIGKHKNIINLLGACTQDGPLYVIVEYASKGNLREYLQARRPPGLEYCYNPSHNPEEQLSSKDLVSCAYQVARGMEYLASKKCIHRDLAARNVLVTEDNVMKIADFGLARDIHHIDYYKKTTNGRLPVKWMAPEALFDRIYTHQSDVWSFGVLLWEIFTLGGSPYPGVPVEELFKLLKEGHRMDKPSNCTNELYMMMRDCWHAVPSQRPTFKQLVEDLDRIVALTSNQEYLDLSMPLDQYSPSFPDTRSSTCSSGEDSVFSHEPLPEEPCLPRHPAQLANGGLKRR

How did the “VEGF-induced phosphorylation of ERK1/2” value (ERK1/2 phosphorylation; HUVEC, 10 ng/mL VEGF-A 15 min, 25 μM COB223) turn out when `CN(C)c1cccc2c(S(=O)(=O)NCCCN3CCN(CCCNC(=O)OC(C)(C)C)CC3)cccc12` [COB223, tert-Butyl 3-(4-(3-(5-(dimethylamino)naphthalene-1-sulfonamido)propyl)piperazin-1-yl) propylcarbamate] was run?
Its value is “significantly inhibited”.

What about the “phosphorylation of ERK1/2 induced by the PKC activator PMA” value (ERK1/2 phosphorylation; HUVEC, 200 nM PMA 5 min, 25 μM COB223) of the same compound?
Its value is “inhibited”.

And the “concentration at which inhibition of MAP kinase phosphorylation was detectable” value (ERK1/2 phosphorylation; dose-response study)?
The value was 5 µM.

What about the “concentration at which inhibition of MAP kinase phosphorylation was statistically significant” value (ERK1/2 phosphorylation; dose-response study) of the same compound?
Its value is 20 µM.

And the “kinase inhibition” value (FGFR1)?
Its value is “None of them was inhibited”.

What about the “neovascular response to FGF-2 (hemoglobin content and fluorescence imaging)” value [1] of the same compound?
Its value is “strong inhibition”.

And the “kinase inhibition” value (PKC ζ)?
The value was “None of them was inhibited”.

And the “effect on cell proliferation” value (LLC/2 cells)?
Its value is “inhibited”.
